Reference: BindingDB's records for doi:10.7270/Q2RN3686 (Emory University, 2009)

target: Eukaryotic translation initiation factor 4 gamma 1 (Homo sapiens, UniProt Q04637); test: blockers of eIF4G binding by eIF4E – biochemical, TR-FRET, dose response (AID 855)
Sequence (Q04637 whole entry): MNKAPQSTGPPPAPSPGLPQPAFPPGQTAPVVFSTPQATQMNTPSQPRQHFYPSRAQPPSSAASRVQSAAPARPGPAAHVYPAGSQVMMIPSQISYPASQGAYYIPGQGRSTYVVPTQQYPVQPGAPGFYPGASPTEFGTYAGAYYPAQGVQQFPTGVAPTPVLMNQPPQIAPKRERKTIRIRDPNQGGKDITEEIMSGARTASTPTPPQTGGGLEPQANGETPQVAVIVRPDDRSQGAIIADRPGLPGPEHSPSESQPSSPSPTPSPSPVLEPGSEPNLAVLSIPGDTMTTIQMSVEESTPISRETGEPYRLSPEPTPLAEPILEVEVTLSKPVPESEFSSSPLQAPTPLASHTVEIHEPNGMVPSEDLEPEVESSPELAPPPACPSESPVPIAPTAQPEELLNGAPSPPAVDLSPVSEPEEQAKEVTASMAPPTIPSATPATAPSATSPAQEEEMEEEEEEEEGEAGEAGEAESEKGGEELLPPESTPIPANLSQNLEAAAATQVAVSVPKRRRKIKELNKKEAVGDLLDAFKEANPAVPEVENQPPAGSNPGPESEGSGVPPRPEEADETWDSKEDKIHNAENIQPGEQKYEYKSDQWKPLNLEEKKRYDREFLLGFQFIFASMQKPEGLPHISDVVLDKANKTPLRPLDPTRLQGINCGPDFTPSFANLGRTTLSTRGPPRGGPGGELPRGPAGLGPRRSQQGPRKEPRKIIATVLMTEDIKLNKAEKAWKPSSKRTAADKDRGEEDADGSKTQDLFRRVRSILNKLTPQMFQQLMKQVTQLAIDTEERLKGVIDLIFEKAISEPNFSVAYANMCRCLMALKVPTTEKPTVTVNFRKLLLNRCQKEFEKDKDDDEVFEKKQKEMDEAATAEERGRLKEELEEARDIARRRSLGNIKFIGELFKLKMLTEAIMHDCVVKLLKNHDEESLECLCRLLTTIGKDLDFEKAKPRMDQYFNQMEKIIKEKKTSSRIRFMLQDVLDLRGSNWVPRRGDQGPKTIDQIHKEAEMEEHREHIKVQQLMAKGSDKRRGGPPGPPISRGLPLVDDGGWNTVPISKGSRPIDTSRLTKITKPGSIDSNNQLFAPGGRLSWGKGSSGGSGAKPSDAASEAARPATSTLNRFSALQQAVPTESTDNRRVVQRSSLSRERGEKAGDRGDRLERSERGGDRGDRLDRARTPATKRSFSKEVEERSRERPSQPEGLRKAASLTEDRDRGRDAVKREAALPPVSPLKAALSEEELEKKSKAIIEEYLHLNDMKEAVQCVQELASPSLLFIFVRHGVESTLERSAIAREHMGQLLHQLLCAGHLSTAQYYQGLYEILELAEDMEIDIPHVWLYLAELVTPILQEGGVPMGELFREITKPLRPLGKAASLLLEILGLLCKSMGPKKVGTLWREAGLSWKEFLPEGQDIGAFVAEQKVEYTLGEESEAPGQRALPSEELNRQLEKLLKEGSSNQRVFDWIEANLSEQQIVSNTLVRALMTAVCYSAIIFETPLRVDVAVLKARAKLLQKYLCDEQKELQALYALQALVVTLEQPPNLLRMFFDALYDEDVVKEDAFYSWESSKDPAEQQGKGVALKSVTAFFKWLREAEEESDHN

With `COc1ccc(Cc2c(O)n(-c3ccccc3)c(=O)[nH]c2=O)c(OC)c1` as the compound, how does the IC50 read?
Its IC50 is > 64 µM.

With `C=c1cc2[nH]c(=O)c(=Cc3cc(C)n(-c4ccccc4)c3C)c(=N)n2o1` as the compound, how does the IC50 read?
Its IC50 is > 64 µM.

How did the IC50 turn out when `COc1ccc(-c2cnnc(N=NCc3ccc(-c4ccc([N+](=O)[O-])cc4)o3)n2)cc1` was run?
Its IC50 is 50 µM.

For `Oc1cc(N2CCN(Cc3ccc4c(c3)OCO4)CC2)c(O)n1-c1cccc(Cl)c1` [1-(3-chlorophenyl)-3-(4-piperonylpiperazino)pyrrolidine-2,5-quinone], which IC50 is on record?
Its IC50 is > 64 µM.

How did the IC50 turn out when `O=C1Nc2ccc([N+](=O)[O-])cc2/C1=N/NC(=O)c1cc(-c2ccccc2Cl)nc2ccccc12` [2-(2-chlorophenyl)-N'-(2-keto-5-nitro-indol-3-yl)cinchoninohydrazide] was run?
The IC50 was > 64 µM.

How did the IC50 turn out when `CC(=O)C1=C(c2ccccc2)OC(=N)C(C#N)C1c1ccc(O)cc1` (configuration not stated) [2-azanyl-5-ethanoyl-4-(4-hydroxyphenyl)-6-phenyl-4H-pyran-3-carbonitrile] was run?
Its IC50 is > 64 µM.

With `CC(C)(C)c1[nH]nc2c1C(c1ccc(OC(=O)c3ccco3)cc1)C(C#N)C(=N)O2` (configuration not stated) [2-furancarboxylic acid [4-(6-amino-3-tert-butyl-5-cyano-2,4-dihydropyrano[2,3-c]pyrazol-4-yl)phenyl] ester] as the compound, how does the IC50 read?
The IC50 was > 64 µM.

With `CSc1ccc(CN=Nc2cccc(C(=O)O)c2)cc1` [3-[(N'E)-N'-[4-(methylthio)benzylidene]hydrazino]benzoic acid] as the compound, how does the IC50 read?
The IC50 was 50 µM.

With `O=C1CCCC(=O)C1C(C#Cc1ccccc1)C1C(=O)CCCC1=O` [3-hydroxy-2-[1-(2-hydroxy-6-keto-cyclohexen-1-yl)-3-phenyl-prop-2-ynyl]cyclohex-2-en-1-one] as the compound, how does the IC50 read?
Its IC50 is > 64 µM.

How did the IC50 turn out when `Cc1cc(CN=Nc2ccc([N+](=O)[O-])cn2)c(C)n1-c1ccc(C(=O)O)cc1` [4-{2,5-dimethyl-3-[2-(5-nitro-2-pyridinyl)carbonohydrazonoyl]-1H-pyrrol-1-yl}benzoic acid] was run?
Its IC50 is 50 µM.

`O=C1CCCC2=Nc3[nH]c(=S)[nH]c(=O)c3C(c3ccc(Br)cc3)C12` (configuration not stated) [5-(4-bromophenyl)-2-thioxo-2,3,5,8,9,10-hexahydropyrimido[4,5-b]quinoline-4,6(1H,7H)-dione] was tested. Which IC50 did it give?
The IC50 was > 64 µM.

Which IC50 does the source give for `NC(=NNC=c1ccc(=C2C=CC(=O)C(C(=O)O)=C2)o1)N[N+](=O)[O-]` [5-(5-{2-[amino(nitroimino)methyl]carbonohydrazonoyl}-2-furyl)-2-hydroxybenzoic acid] here?
The IC50 was 63.6 µM.

`CC(=O)C1=C(C)N=C(SCc2ccc(C#N)cc2)C(C#N)C1c1ccco1` (configuration not stated) [5-acetyl-2-[(4-cyanophenyl)methylsulfanyl]-4-(furan-2-yl)-6-methyl-1,4-dihydropyridine-3-carbonitrile] was tested. Which IC50 did it give?
The IC50 was > 64 µM.

With `COc1ccc(Cn2c(Nc3cc(Cl)ccc3OC)c3[nH]cccc-3c2=O)cc1` [7-[(5-chloranyl-2-methoxy-phenyl)amino]-6-[(4-methoxyphenyl)methyl]-7H-pyrrolo[3,4-b]pyridin-5-one] as the compound, how does the IC50 read?
Its IC50 is 14.4 µM.

`CN(C)[C@@H]1C(=O)C(C(N)=O)C(=O)[C@@]2(O)C(=O)C3C(=O)c4c(O)cccc4[C@@](C)(O)[C@H]3[C@H](O)[C@@H]12` (stereo partly drawn) [(2E,4S,4aR,5S,5aR,6S,12aS)-2-[azanyl(oxidanyl)methylidene]-4-(dimethylamino)-6-methyl-5,6,10,11,12a-pentakis(oxidanyl)-4,4a,5,5a-tetrahydrotetracene-1,3,12-trione] was tested. Which IC50 did it give?
Its IC50 is 50 µM.

For `CN(C)[C@@H]1C(=O)C(C(=O)NCN2CCCC2)C(=O)[C@@]2(O)C(=O)C3C(=O)c4c(O)cccc4[C@@](C)(O)C3CC12` (stereo partly drawn) [(2Z,4S,6S,12aS)-4-(dimethylamino)-6,10,11,12a-tetrahydroxy-2-[hydroxy-(1-pyrrolidinylmethylamino)methylidene]-6-methyl-4,4a,5,5a-tetrahydrotetracene-1,3,12-trione], which IC50 is on record?
Its IC50 is 12.3 µM.

How did the IC50 turn out when `COc1ccc2nc(N3C(=O)C(=C4C(=O)Nc5ccccc54)NC3=S)sc2c1` [(3Z)-3-[1-(6-methoxy-1,3-benzothiazol-2-yl)-5-oxidanylidene-2-sulfanylidene-imidazolidin-4-ylidene]-1H-indol-2-one] was run?
The IC50 was > 64 µM.

`O=C1C=CC(CN=Nc2nccs2)C=C1[N+](=O)[O-]` (configuration not stated) [(4Z)-2-nitro-4-[(2-thiazolylhydrazo)methylidene]-1-cyclohexa-2,5-dienone] was tested. Which IC50 did it give?
The IC50 was 10.8 µM.

With `COc1cc(C2C(C(=O)c3ccccc3)C(=O)C(=O)N2c2ccccn2)ccc1O` (configuration not stated) [(4Z)-5-(3-methoxy-4-oxidanyl-phenyl)-4-[oxidanyl(phenyl)methylidene]-1-pyridin-2-yl-pyrrolidine-2,3-dione] as the compound, how does the IC50 read?
The IC50 was 50 µM.

With `O=C1N=C(Nc2ccc(O)cc2)SC1=C1C(=O)Nc2ccccc21` [(5Z)-2-[(4-hydroxyphenyl)amino]-5-(2-oxidanylidene-1H-indol-3-ylidene)-1,3-thiazol-4-one] as the compound, how does the IC50 read?
The IC50 was 50 µM.

With `O=[N+]([O-])c1cc(Br)c(O)c(CN=Nc2nnnn2-c2cccc3ccccc23)c1` [(6E)-2-bromo-6-[[2-(1-naphthalen-1-yltetrazol-5-yl)hydrazinyl]methylidene]-4-nitrocyclohexa-2,4-dien-1-one] as the compound, how does the IC50 read?
Its IC50 is > 64 µM.

Which IC50 does the source give for `O=NCC(=O)Nc1ccc(F)cc1` [MLS000036190] here?
The IC50 was > 64 µM.

With `Cc1ccc(/C=C/C(=O)C2=C(O)N(C)C3(C)CC2c2ccccc2O3)cc1` (configuration not stated) [MLS000519940] as the compound, how does the IC50 read?
Its IC50 is > 64 µM.

Which IC50 does the source give for `Cc1ccc(-n2c(C)cc(CN=Nc3ccc([N+](=O)[O-])cn3)c2C)cc1` [MLS000552475] here?
Its IC50 is > 64 µM.

How did the IC50 turn out when `Cc1ccccc1C(=O)Nc1cccc(C(=O)N/N=C/C2C=C(Cl)C=C([N+](=O)[O-])C2=O)c1` (configuration not stated) [N-(3-{[(2E)-2-(5-chloro-2-hydroxy-3-nitrobenzylidene)hydrazino]carbonyl}phenyl)-2-methylbenzamide] was run?
Its IC50 is 50 µM.

`Cc1ccc(Nc2c3[nH]cccc-3c(=O)n2-c2ccccc2C)cc1C` [SMR000028201] was tested. Which IC50 did it give?
The IC50 was 9.59 µM.

How did the IC50 turn out when `C[N+](C)(C)c1ccc(CN=Nc2nc(Cl)c(C#N)c(Cl)c2Cl)cc1` [trimethyl-[4-[[(3,4,6-trichloro-5-cyanopyridin-2-yl)hydrazinylidene]methyl]phenyl]azanium;iodide] was run?
The IC50 was > 64 µM.
